From patent publication US20240217957A1, “HETEROCYCLIC COMPOUND AND USE THEREOF” (TAKEDA PHARMACEUTICAL COMPANY LIMITED, priority 2022, published 2024) come the findings set out here.

The assay addresses T1, human OX2 receptor (Homo sapiens, UniProt O43614).
T1 construct: expressed in transfected cells
T1 sequence (O43614 1-444): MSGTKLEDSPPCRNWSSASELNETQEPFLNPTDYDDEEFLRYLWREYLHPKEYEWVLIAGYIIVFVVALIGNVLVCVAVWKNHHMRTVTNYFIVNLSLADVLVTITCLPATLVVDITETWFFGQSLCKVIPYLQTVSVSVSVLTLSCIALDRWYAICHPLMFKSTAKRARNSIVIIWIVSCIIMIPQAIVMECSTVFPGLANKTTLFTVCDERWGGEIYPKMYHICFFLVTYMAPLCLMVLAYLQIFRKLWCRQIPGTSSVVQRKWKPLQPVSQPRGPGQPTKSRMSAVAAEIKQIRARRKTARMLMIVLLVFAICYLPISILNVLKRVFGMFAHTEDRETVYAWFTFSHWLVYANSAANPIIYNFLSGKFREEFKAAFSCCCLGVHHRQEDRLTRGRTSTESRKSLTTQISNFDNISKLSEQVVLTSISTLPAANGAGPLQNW
The assay is described as follows: Measurement of orexin type 2 receptor agonist activity (calcium fluorescence, Fluo-4 AM, FDSS). Type of assay: cell-based. The following applies: compound at 3 μM; CHO cells forcibly expressing human OX2 receptor; DMSO = 0%, 10 nM orexin A (human) = 100%. A digest of the protocol:
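Agonist response is expressed as % of the fluorescence change given by 10 nM human orexin A, with DMSO as 0%, read over 1 min 40 s on FDSS after compound addition. Cells: stable human OX2 (1-444) CHO-K1 clones, dye-loaded with Fluo-4 AM plus probenecid in HEPES-buffered HBSS with 0.1% BSA.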
Take `Cc1cnc([C@@H]2CC(N3C[C@H](F)[C@H](NS(=O)(=O)CF)C3)=NO2)c(-c2c(F)cccc2F)c1` [Example 68, N-[(3R,4S)-1-{(5S)-5-[3-(2,6-difluorophenyl)-5-methylpyridin-2-yl]-4,5-dihydro-1,2-oxazol-3-yl}-4-fluoropyrrolidin-3-yl]-1-fluoromethanesulfonamide]: the “OX2R agonist activity (3 μM, %)” value came out at 104%.

Regarding `CC1(c2ncc(F)cc2-c2c(F)cccc2F)CC(N2CC[C@H](NS(C)(=O)=O)C2)=NO1` (stereo partly drawn) [Example 122, N-[(3S)-1-{5-[3-(2,6-difluorophenyl)-5-fluoropyridin-2-yl]-5-methyl-4,5-dihydro-1,2-oxazol-3-yl}pyrrolidin-3-yl]methanesulfonamide], the “OX2R agonist activity (3 μM, %)” value amounted to 102%.

For the compound `CS(=O)(=O)N[C@@H]1CN(C2=NOC(c3c(F)ccc(F)c3-c3c(F)cccc3F)C2)CC1(F)F` (stereo partly drawn) [Example 136, N-{(3R)-4,4-difluoro-1-[5-(2′,3,6,6′-tetrafluoro[1,1'-biphenyl]-2-yl)-4,5-dihydro-1,2-oxazol-3-yl]pyrrolidin-3-yl}methanesulfonamide], the “OX2R agonist activity (3 μM, %)” value is reported as 114%.

In the case of `Cc1cnc([C@@H]2CC(N3CC[C@H](NS(=O)(=O)C(F)F)C3)=NO2)c(-c2c(F)cccc2F)c1` [Example 37, N-[(3S)-1-{(5S)-5-[3-(2,6-difluorophenyl)-5-methylpyridin-2-yl]-4,5-dihydro-1,2-oxazol-3-yl}pyrrolidin-3-yl]-1,1-difluoromethanesulfonamide], the “OX2R agonist activity (3 μM, %)” value is recorded as 103%.

Consider `Cc1ccc(C2(C)CC(N3C[C@@H](NS(C)(=O)=O)C(F)(F)C3)=NO2)c(-c2ncc(F)cc2F)c1` (stereo partly drawn) [Example 161, N-[(3R)-1-{5-[2-(3,5-difluoropyridin-2-yl)-4-methylphenyl]-5-methyl-4,5-dihydro-1,2-oxazol-3-yl}-4,4-difluoropyrrolidin-3-yl]methanesulfonamide], for which the “OX2R agonist activity (3 μM, %)” value is 103%.

Take `Cc1cnc(C2(CF)CC(N3C[C@H](F)[C@H](NS(C)(=O)=O)C3)=NO2)c(-c2c(F)cccc2F)c1` (stereo partly drawn) [Example 86, N-[(3R,4S)-1-{5-[3-(2,6-difluorophenyl)-5-methylpyridin-2-yl]-5-(fluoromethyl)-4,5-dihydro-1,2-oxazol-3-yl}-4-fluoropyrrolidin-3-yl]methanesulfonamide]: the “OX2R agonist activity (3 μM, %)” value came out at 95%.

`O=S(=O)(CF)N[C@@H]1CN(C2=NOC(c3ncc(Cl)cc3-c3c(F)cccc3F)C2)CC1(F)F` (stereo partly drawn) [Example 148, N-[(3R)-1-{5-[5-chloro-3-(2,6-difluorophenyl)pyridin-2-yl]-4,5-dihydro-1,2-oxazol-3-yl}-4,4-difluoropyrrolidin-3-yl]-1-fluoromethanesulfonamide]: the “OX2R agonist activity (3 μM, %)” value was 98%.

On to `Cc1cnc(C2(CF)CC(N3C[C@@H](NS(C)(=O)=O)C(F)(F)C3)=NO2)c(-c2c(F)cc(F)cc2F)c1` (stereo partly drawn) [Example 93, N-[(3R)-4,4-difluoro-1-{5-(fluoromethyl)-5-[5-methyl-3-(2,4,6-trifluorophenyl)pyridin-2-yl]-4,5-dihydro-1,2-oxazol-3-yl}pyrrolidin-3-yl]methanesulfonamide], for which the “OX2R agonist activity (3 μM, %)” value came to 99%.

Take `CCS(=O)(=O)NC[C@@H]1CCCN1C1=NOC(c2ncc(C)cc2-c2c(F)cccc2F)C1` (stereo partly drawn) [Example 26, N-{[(2S)-1-{5-[3-(2,6-difluorophenyl)-5-methylpyridin-2-yl]-4,5-dihydro-1,2-oxazol-3-yl}pyrrolidin-2-yl]methyl}ethanesulfonamide]: the “OX2R agonist activity (3 μM, %)” value is 42%.

As to `Cc1cnc(C2(CF)CC(N3C[C@@H](NS(C)(=O)=O)C(F)(F)C3)=NO2)c(-c2c(F)cccc2F)c1` (stereo partly drawn) [Example 108, N-[(3R)-1-{5-[3-(2,6-difluorophenyl)-5-methylpyridin-2-yl]-5-(fluoromethyl)-4,5-dihydro-1,2-oxazol-3-yl}-4,4-difluoropyrrolidin-3-yl]methanesulfonamide], the “OX2R agonist activity (3 μM, %)” value stood at 105%.

As to `CS(=O)(=O)N[C@@H]1CN(C2=NOC(c3ncc(Cl)cc3-c3c(F)cccc3F)C2)C[C@@H]1F` (stereo partly drawn) [Example 103, N-[(3R,4S)-1-{5-[5-chloro-3-(2,6-difluorophenyl)pyridin-2-yl]-4,5-dihydro-1,2-oxazol-3-yl}-4-fluoropyrrolidin-3-yl]methanesulfonamide], the “OX2R agonist activity (3 μM, %)” value worked out at 96%.

In the case of `Cc1cnc(C2CC(C3CC(NS(C)(=O)=O)C3)=NO2)c(-c2c(F)cc(F)cc2F)c1` (stereo not shown) [Example 23, N-[(1s,3s)-3-{5-[5-methyl-3-(2,4,6-trifluorophenyl)pyridin-2-yl]-4,5-dihydro-1,2-oxazol-3-yl}cyclobutyl]methanesulfonamide], the “OX2R agonist activity (3 μM, %)” value is 42%.

With `Cc1cnc([C@@H]2CC(N3C[C@H](F)[C@H](NS(=O)(=O)C4(F)CC4)C3)=NO2)c(-c2c(F)cc(F)cc2F)c1` (single isomer, unassigned) [Example 107, optical isomer of 1-fluoro-N-[(3R,4S)-4-fluoro-1-{(5S)-5-[5-methyl-3-(2,4,6-trifluorophenyl)pyridin-2-yl]-4,5-dihydro-1,2-oxazol-3-yl}pyrrolidin-3-yl]cyclopropane-1-sulfonamide or 1-fluoro-N-[(3S,4R)-4-fluoro-1-{(5S)-5-[5-methyl-3-(2,4,6-trifluorophenyl)pyridin-2-yl]-4,5-dihydro-1,2-oxazol-3-yl}pyrrolidin-3-yl]cyclopropane-1-sulfonamide], the “OX2R agonist activity (3 μM, %)” value came to 98%.

Turning to `CCS(=O)(=O)N[C@@H]1CN(C2=NOC(c3ncc(C)cc3-c3c(F)cc(F)cc3F)(C(F)F)C2)CC1(F)F` (stereo partly drawn) [Example 13, N-[(3R)-1-{5-(difluoromethyl)-5-[5-methyl-3-(2,4,6-trifluorophenyl)pyridin-2-yl]-4,5-dihydro-1,2-oxazol-3-yl}-4,4-difluoropyrrolidin-3-yl]ethanesulfonamide], the “OX2R agonist activity (3 μM, %)” value is 107%.

As to `Cc1cnc([C@@H]2CC(N3C[C@@H](C)[C@H](NS(C)(=O)=O)C3)=NO2)c(-c2c(F)cccc2F)c1` (single isomer, unassigned) [Example 71, optical isomer of N-[(3S,4R)-1-{(5S)-5-[3-(2,6-difluorophenyl)-5-methylpyridin-2-yl]-4,5-dihydro-1,2-oxazol-3-yl}-4-methylpyrrolidin-3-yl]methanesulfonamide or N-[(3R,4S)-1-{(5S)-5-[3-(2,6-difluorophenyl)-5-methylpyridin-2-yl]-4,5-dihydro-1,2-oxazol-3-yl}-4-methylpyrrolidin-3-yl]methanesulfonamide], the “OX2R agonist activity (3 μM, %)” value is 108%.

In the case of `CS(=O)(=O)N[C@@H]1CN(C2=NOC(c3ncc(Cl)cc3-c3c(F)cc(F)cc3F)C2)CC1(F)F` (stereo partly drawn) [Example 39, N-[(3R)-1-{5-[5-chloro-3-(2,4,6-trifluorophenyl)pyridin-2-yl]-4,5-dihydro-1,2-oxazol-3-yl}-4,4-difluoropyrrolidin-3-yl]methanesulfonamide], the “OX2R agonist activity (3 μM, %)” value came out at 97%.

Turning to `Cc1ccc(C2CC(N3C[C@@H](NS(C)(=O)=O)C(F)(F)C3)=NO2)c(-c2c(F)cccc2F)n1` (stereo partly drawn) [Example 114, N-[(3R)-1-{5-[2-(2,6-difluorophenyl)-6-methylpyridin-3-yl]-4,5-dihydro-1,2-oxazol-3-yl}-4,4-difluoropyrrolidin-3-yl]methanesulfonamide], the “OX2R agonist activity (3 μM, %)” value is reported as 87%.

On to `Cc1cnc(C2CC([C@H]3CC[C@H](NS(C)(=O)=O)C3)=NO2)c(-c2c(F)cc(F)cc2F)c1` (stereo partly drawn) [Example 25, N-[(1S,3S)-3-{5-[5-methyl-3-(2,4,6-trifluorophenyl)pyridin-2-yl]-4,5-dihydro-1,2-oxazol-3-yl}cyclopentyl]methanesulfonamide], for which the “OX2R agonist activity (3 μM, %)” value stood at 88%.

Consider `Cc1ncc(C2CC(N3C[C@@H](NS(C)(=O)=O)C(F)(F)C3)=NO2)c(-c2c(F)cccc2F)n1` (stereo partly drawn) [Example 134, N-[(3R)-1-{5-[4-(2,6-difluorophenyl)-2-methylpyrimidin-5-yl]-4,5-dihydro-1,2-oxazol-3-yl}-4,4-difluoropyrrolidin-3-yl]methanesulfonamide], for which the “OX2R agonist activity (3 μM, %)” value stood at 103%.

For `CS(=O)(=O)N[C@@H]1CN(C2=NOC(c3c(F)cccc3-c3c(F)cccc3F)C2)CC1(F)F` (stereo partly drawn) [Example 160, N-{(3R)-4,4-difluoro-1-[5-(2′,3,6′-trifluoro[1,1′-biphenyl]-2-yl)-4,5-dihydro-1,2-oxazol-3-yl]pyrrolidin-3-yl}methanesulfonamide], the “OX2R agonist activity (3 μM, %)” value was found to be 104%.

On to `Cc1cnc(C2(CF)CC(N3C[C@H](F)[C@H](NS(C)(=O)=O)C3)=NO2)c(-c2c(F)cccc2F)n1` (stereo partly drawn) [Example 105, N-[(3R,4S)-1-{5-[3-(2,6-difluorophenyl)-5-methylpyrazin-2-yl]-5-(fluoromethyl)-4,5-dihydro-1,2-oxazol-3-yl}-4-fluoropyrrolidin-3-yl]methanesulfonamide], for which the “OX2R agonist activity (3 μM, %)” value stood at 97%.

Turning to `Cc1cc(F)c(C2CC(N3C[C@@H](NS(=O)(=O)CF)C(F)(F)C3)=NO2)c(-c2ncc(F)cc2F)c1` (stereo partly drawn) [Example 177, N-[(3R)-1-{5-[2-(3,5-difluoropyridin-2-yl)-6-fluoro-4-methylphenyl]-4,5-dihydro-1,2-oxazol-3-yl}-4,4-difluoropyrrolidin-3-yl]-1-fluoromethanesulfonamide], the “OX2R agonist activity (3 μM, %)” value was determined as 106%.
